Results taken from US4965269A, “Therapeutically active chloro substituted benzimidazoles” (AB Hassle, priority 1989, dated 1990).

Assay: Chemical stability in aqueous buffer solution
Assay type: physicochemical
Details: pH 2, 37° C., time after which 10% of the original compound has decomposed
Method: The chemical stability of the compounds of the invention has been followed kinetically at low concentration at 37° C. in aqueous buffer solution at different pH values. The results in Table 3 show the half life (t 1/2) at pH 7, that is the time period after which half the amount of the original compound remains unchanged, and t10 % at pH 2, that is the time period after which 10% of the original compound has decomposed.

Row | Chemical Stability at pH 2, t 10% | SMILES
1 | 14 h | COc1ccnc(C[S+]([O-])c2nc3cc(Cl)ccc3n2COC(=O)OCc2ccccc2)c1OC (stereo not shown) [Example 1, 5-chloro-2-[[(3,4-dimethoxy-2-pyridinyl)methyl]sulfinyl]-1H-benzimidazole-1-ylmethyl benzyl carbonate]
2 | 27 h | COc1ccnc(C[S+]([O-])c2nc3ccc(Cl)cc3n2COC(=O)OCc2ccccc2)c1OC (stereo not shown) [Example 2, 6-chloro-2-[[(3,4-dimethoxy-2-pyridinyl)methyl]sulfinyl]-1H-benzimidazole-1-ylmethyl benzyl carbonate]
3 | 21 h | CCCCOC(=O)OCn1c([S+]([O-])Cc2nccc(OC)c2OC)nc2cc(Cl)ccc21 (stereo not shown) [Example 3, 5-chloro-2-[[(3,4-dimethoxy-2-pyridinyl)methyl]sulfinyl]-1H-benzimidazole-1-ylmethyl butyl carbonate]
4 | 42 h | CCCCOC(=O)OCn1c([S+]([O-])Cc2nccc(OC)c2OC)nc2ccc(Cl)cc21 (stereo not shown) [Example 4, 6-chloro-2[[(3,4-dimethoxy-2pyridinyl)methyl]sulfinyl]-1H-benzimidazole-1-ylmethyl butyl carbonate]
